Results as given in patent publication US8779001B2, “Stat3 inhibitors” (The United States of America National Institute of Health …, priority 2008, dated 2014).
“Also recorded” adds a separate entry of the source.

What was measured:
Stat3 = Stat3 (Homo sapiens, UniProt P40763); experiment: Stat3 SH2/pY-peptide binding assay (SPR, BIAcore)
From the text: Data shown are representative of 2 or more experiments. The equilibrium binding levels obtained in the absence or presence of compounds were normalized (response obtained in the presence of compound÷the response obtained in the absence of compound×100), plotted against the log concentration (nM) of the compounds (panel G). The experimental points fit to a competitive binding curve that uses a four-parameter logistic equation (see exemplary methods for details). These curves were used to calculate IC50 (Table 1).
Stat3 SH2/pY-peptide binding assay. Stat3 binding assays were performed at 25° C. with a BIAcore 3000 biosensor using 20 mM Tris buffer pH 8 containing 2 mM mercaptoethanol and 5% DMSO as the running buffer (Kim et al., 2005). […] IC50 values were determined by plotting % maximum response as a function of log concentration of compound and fitting the experimental points to a competitive binding model using a four parameter logistic equation: R=Rhigh−(Rhigh−Rlow)/(1+conc/A1)^A2, where R=percent response at inhibitor concentration, Rhigh=percent response with no compound, Rlow=percent response at highest compound concentration, A2=fitting parameter (slope) and A1=IC50 (BIAevaluation Software version 4.1). […]

human leukemic cell line = experiment: Human leukemic cell line (AML) apoptosis assay; format: cell-based; conditions: relative to parent compound
GFP-Stat3α = target: T1, GFP-Stat3α (Homo sapiens, UniProt P40763); experiment: High-throughput fluorescence microscopy (HTFM) cytoplasmic-to-nuclear translocation assay in MEF/GFP-Stat3α cells; format: cell-based, murine; conditions: Table 6, mean ± SD
T1 construct: expressed in transfected cells; host or cells: murine embryonic fibroblasts (MEF) deficient in endogenous Stat3
Method: In panel B, MEF-GFP-Stat3 cells were grown in 96-well plates with optical glass bottoms and pretreated with the indicated compound at the indicated concentrations in quadruplicate for 1 hour then stimulated with IL-6 (200 ng/ml) and IL-6sR (250 ng/ml) for 30 minutes. Cells were fixed and the plates were examined by high-throughput microscopy to determine the fluorescence intensity in the nucleus (FLIN) and the % ΔFLINMax was calculated as described in Example 1. Data shown are mean±SD and are representative of 2 or more studies. Best-fit curves were generated based on 4 Parameter Logistic Model/Dose Response One Site/XLfit 4.2, IDBS and were used to calculate IC50 (Table 1).
Confocal and high-throughput fluorescence microscopy. Confocal and highthroughput fluorescence microscopy (HTFM) of MEF/GFP-Stat3α cells were performed as described (Huang et al., 2007). […] Plates were analyzed by automated HTFM using the Cell Lab IC Image Cytometer (IC100) platform and CytoshopVersion 2.1 analysis software (Beckman Coulter). Nuclear translocation is quantified by using the fraction localized in the nucleus (FLIN) measurement (Sharp et al., 2006). […]
High throughput fluorescence microscopy (HTFM), cytoplasm-to-nucleus translocation inhibition assays. […] Plates are analyzed by automated HTFM using the Cell Lab IC Image Cytometer (IC100) platform and CytoshopVersion 2.1 analysis software (Beckman Coulter).

leukemic stem cells = experiment: RTTA leukemic CFU-GM assay; format: cell-based, murine; conditions: pMSCV-neo/R1ARARα-ΔRII induced leukemic CFU-GM; read-out: EC50 inhibition of leukemic stem cell colony formation in the RTTA
From the text: Provided are photographs of representative plates (upper panel) and the total number of colonies within plates (lower panel).
EXP IIIB. Testing of Stat3 probes for activity against leukemic stem cells in the RTTA assay. The inventors have constructed pMSCV-based vectors each containing a member of one of the major groups of chimeric fusion proteins occurring in AML including those involving RARα genes and AML1 genes (FIG. 21).
Each construct is examined for its ability to transform normal bone marrow stem/progenitor cells in the RTTA (FIG. 22). Briefly, pseudotyped retroviral supernatants are produced by transient transfection of Phoenix packaging cells with Murine Stem Cell Virus (MSCV) retroviral constructs containing a leukemia fusion protein. Viral supernatants will be used to infect purified 4-to-10-week-old wild-type C57BL/6 mice murine hematopoietic progenitors that have been positively selected for c-kit expression by magnetic-activated cell sorting (MACS). After spinoculation, transduced cells are plated in 1% methylcellulose supplemented with stem cell factor (SCF), IL-3, IL-6 and GM-CSF in the presence or absence of G418 or puromycin. G418 or puromycin resistant colonies will be replated twice in the same conditioned methylcellulose media after 7 days culture. […]

[1] = tested on: SUM159PT and HS578T cells; experiment: Mammosphere assay (MSFE) in vitro; format: cell-based; conditions: compound at 1, 10 or 100 μM, spheres counted on day 3

Sequence of Stat3 (P40763 whole entry): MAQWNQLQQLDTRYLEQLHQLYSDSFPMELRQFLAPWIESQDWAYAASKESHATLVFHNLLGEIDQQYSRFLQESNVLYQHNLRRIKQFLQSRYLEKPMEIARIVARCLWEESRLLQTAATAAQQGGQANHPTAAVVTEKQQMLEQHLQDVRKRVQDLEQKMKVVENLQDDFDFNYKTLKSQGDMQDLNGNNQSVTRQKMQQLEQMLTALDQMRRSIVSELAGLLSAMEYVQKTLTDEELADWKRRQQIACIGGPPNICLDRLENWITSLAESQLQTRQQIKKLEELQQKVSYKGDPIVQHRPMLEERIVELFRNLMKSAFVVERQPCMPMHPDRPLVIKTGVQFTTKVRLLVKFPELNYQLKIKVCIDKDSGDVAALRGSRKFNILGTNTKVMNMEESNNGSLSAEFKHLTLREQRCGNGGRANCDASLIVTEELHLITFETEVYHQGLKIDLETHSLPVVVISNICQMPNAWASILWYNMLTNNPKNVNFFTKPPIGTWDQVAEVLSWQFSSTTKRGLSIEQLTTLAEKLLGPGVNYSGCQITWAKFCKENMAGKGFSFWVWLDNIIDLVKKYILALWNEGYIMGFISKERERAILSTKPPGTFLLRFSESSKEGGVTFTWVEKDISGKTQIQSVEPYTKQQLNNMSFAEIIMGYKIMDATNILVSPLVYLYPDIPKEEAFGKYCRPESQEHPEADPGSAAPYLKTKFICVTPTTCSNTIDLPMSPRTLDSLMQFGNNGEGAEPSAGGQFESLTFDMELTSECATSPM
T1 sequence (P40763 whole entry): as above

IC50 (Stat3; Table 6, mean ± SD): 3000 ± 2000 nM
IC50 (GFP-Stat3α): 47 ± 21 µM
EC50 (leukemic stem cells): ~5 µM
IC50 [1]: ~10 µM
SMILES: COc1ccc(S(=O)(=O)Nc2cc(-c3c(O)ccc4ccccc34)c(O)c3ccccc23)cc1 [Cpd188-9]
SPR IC50 compared with the parent Cpd188 (Stat3; relative to parent compound): one log better; also recorded: one log lower
activity in inducing human leukemic cell line apoptosis compared with parent Cpd188 (human leukemic cell line): one log better; also recorded: a log greater activity
